Test results published in the supplement of paper PMC10307832.

Columns and labels:
Assay in all cases: relative viability (nuclei count vs DMSO), 5 days (fraction); higher = more cells survive
ChaGo-K-1 = system: ChaGo-K-1
Outline: (§1)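 A single step with final 0.05% Triton X-100, 1% formaldehyde and 1 ug/ml Hoechst fixed the cells and stained nuclei 5 days after treatment. Lung cancer cell lines in 1536-well plates had been treated by pin tool the day after seeding with one drug alone or a fixed anchor-drug dose plus five library-drug doses (not always all listed) in √10 steps, and nuclei were counted on 4× images. Relative viability is the ratio of nuclei in treated wells to nuclei in vehicle wells, taken as the median of duplicate plates.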

EKVX = system: EKVX
Outline: as §1

EMC-BAC-2 = system: EMC-BAC-2
Outline: as §1

EPLC-272H = system: EPLC-272H
Outline: as §1

HCC-78 = system: HCC-78
Outline: as §1

HCC-827 = system: HCC-827
Outline: as §1

LCLC-103H = system: LCLC-103H
Outline: as §1

LK-2 = system: LK-2
Outline: as §1

LU99A = system: LU99A
Outline: as §1

LXF-289 = system: LXF-289
Outline: as §1

NCI-H1563 = system: NCI-H1563
Outline: as §1

NCI-H1666 = system: NCI-H1666
Outline: as §1

With `O=c1cc(-c2cccc3c2Sc2ccccc2S3)oc(N2CCOCC2)c1` + Nc1nc2[nH]cc(CCc3ccc(C(=O)N[C@@H](CCC(=O)O)C(=O)O)cc3)c2c(=O)[nH]1 [Pemetrexed] (partner 0.2 µM) as the compound, how does the relative viability (ChaGo-K-1; first compound 0.08 µM) read?
The relative viability was 0.251.

What about the relative viability (ChaGo-K-1; first compound 0.253 µM) of the same compound?
Its relative viability is 0.264.

And the relative viability (ChaGo-K-1; first compound 0.8 µM)?
The relative viability was 0.248.

And the relative viability (ChaGo-K-1; first compound 2.53 µM)?
The relative viability was 0.287.

And the relative viability (ChaGo-K-1; first compound 8 µM)?
Its relative viability is 0.273.

What about the relative viability (EKVX; first compound 0.08 µM) of the same compound?
The relative viability was 0.428.

What about the relative viability (EKVX; first compound 0.253 µM) of the same compound?
Its relative viability is 0.376.

What about the relative viability (EKVX; first compound 0.8 µM) of the same compound?
The relative viability was 0.381.

And the relative viability (EKVX; first compound 2.53 µM)?
The relative viability was 0.482.

What about the relative viability (EKVX; first compound 8 µM) of the same compound?
The relative viability was 0.436.

What about the relative viability (EMC-BAC-2; first compound 0.08 µM) of the same compound?
The relative viability was 0.396.

What about the relative viability (EMC-BAC-2; first compound 0.253 µM) of the same compound?
Its relative viability is 0.473.

And the relative viability (EMC-BAC-2; first compound 0.8 µM)?
Its relative viability is 0.442.

And the relative viability (EMC-BAC-2; first compound 2.53 µM)?
Its relative viability is 0.429.

What about the relative viability (EMC-BAC-2; first compound 8 µM) of the same compound?
The relative viability was 0.463.

And the relative viability (EPLC-272H; first compound 0.08 µM)?
Its relative viability is 0.296.

And the relative viability (EPLC-272H; first compound 0.253 µM)?
Its relative viability is 0.224.

And the relative viability (EPLC-272H; first compound 0.8 µM)?
The relative viability was 0.333.

And the relative viability (EPLC-272H; first compound 2.53 µM)?
Its relative viability is 0.304.

And the relative viability (EPLC-272H; first compound 8 µM)?
Its relative viability is 0.197.

And the relative viability (HCC-78; first compound 0.08 µM)?
Its relative viability is 0.914.

And the relative viability (HCC-78; first compound 0.253 µM)?
The relative viability was 0.943.

What about the relative viability (HCC-78; first compound 0.8 µM) of the same compound?
Its relative viability is 0.946.

And the relative viability (HCC-78; first compound 2.53 µM)?
The relative viability was 0.882.

What about the relative viability (HCC-78; first compound 8 µM) of the same compound?
The relative viability was 0.928.

And the relative viability (HCC-827; first compound 0.08 µM)?
Its relative viability is 0.231.

What about the relative viability (HCC-827; first compound 0.253 µM) of the same compound?
Its relative viability is 0.272.

And the relative viability (HCC-827; first compound 0.8 µM)?
Its relative viability is 0.244.

And the relative viability (HCC-827; first compound 2.53 µM)?
The relative viability was 0.264.

And the relative viability (HCC-827; first compound 8 µM)?
Its relative viability is 0.228.

And the relative viability (LCLC-103H; first compound 0.08 µM)?
Its relative viability is 0.44.

And the relative viability (LCLC-103H; first compound 0.253 µM)?
The relative viability was 0.467.

And the relative viability (LCLC-103H; first compound 0.8 µM)?
Its relative viability is 0.473.

What about the relative viability (LCLC-103H; first compound 2.53 µM) of the same compound?
Its relative viability is 0.423.

What about the relative viability (LCLC-103H; first compound 8 µM) of the same compound?
Its relative viability is 0.438.

And the relative viability (LK-2; first compound 0.08 µM)?
The relative viability was 0.312.

And the relative viability (LK-2; first compound 0.253 µM)?
Its relative viability is 0.297.

What about the relative viability (LK-2; first compound 0.8 µM) of the same compound?
The relative viability was 0.224.

And the relative viability (LK-2; first compound 2.53 µM)?
The relative viability was 0.256.

What about the relative viability (LK-2; first compound 8 µM) of the same compound?
The relative viability was 0.284.

What about the relative viability (LU99A; first compound 0.08 µM) of the same compound?
Its relative viability is 0.201.

And the relative viability (LU99A; first compound 0.253 µM)?
The relative viability was 0.169.

What about the relative viability (LU99A; first compound 0.8 µM) of the same compound?
The relative viability was 0.184.

And the relative viability (LU99A; first compound 2.53 µM)?
The relative viability was 0.324.

And the relative viability (LU99A; first compound 8 µM)?
Its relative viability is 0.187.

What about the relative viability (LXF-289; first compound 0.08 µM) of the same compound?
Its relative viability is 0.95.

What about the relative viability (LXF-289; first compound 0.253 µM) of the same compound?
The relative viability was 0.96.

And the relative viability (LXF-289; first compound 0.8 µM)?
Its relative viability is 0.975.

And the relative viability (LXF-289; first compound 2.53 µM)?
The relative viability was 0.93.

And the relative viability (LXF-289; first compound 8 µM)?
The relative viability was 1.03.

And the relative viability (NCI-H1563; first compound 0.08 µM)?
The relative viability was 0.695.

And the relative viability (NCI-H1563; first compound 0.253 µM)?
The relative viability was 0.741.

What about the relative viability (NCI-H1563; first compound 0.8 µM) of the same compound?
The relative viability was 0.744.

And the relative viability (NCI-H1563; first compound 2.53 µM)?
Its relative viability is 0.684.

And the relative viability (NCI-H1563; first compound 8 µM)?
The relative viability was 0.787.

What about the relative viability (NCI-H1666; first compound 0.08 µM) of the same compound?
The relative viability was 0.844.

What about the relative viability (NCI-H1666; first compound 0.253 µM) of the same compound?
The relative viability was 0.913.
